Assays:
[1] = target: SUMO1 (Homo sapiens, UniProt P63165); test: Western and dot blot assays for SUMO1 conjugation and SUMO1 protein levels in LN229 cells; assay type: cell-based; set-up: analyzed by western blotting for detection of the conjugate and free form of SUMO1 protein and dot blotting for total levels of SUMO1 protein; endogenous in cells; host or cells: LN229 glioblastoma cells; settings: LN229 cells
Description: FIG. 2A illustrates how the glioblastoma LN229 cell line was treated with each of compounds of the National Cancer Institute (NCI) Diversity Set IV library and analyzed by western blot assays using SUMO1, SUMO2/3, UB and β-actin antibodies.
(§1) LN229 cell were treated with a series of dilutions of CPD1 and examined by cell viability assay for cell growth inhibition (FIG. 2B). […] Therefore, CPD1 acts as the degrader of SUMO1 protein and inhibitor of SUMO1 conjugation in cancer cells.
(§2) The non-conjugated Flag-tagged SUMO1 (Flag-SUMO1-GV) and the HA-tagged wild type (WT) UB (HA-UB-WT) were co-transfected in LN229 cells.

[2] = test system: NCI-60 panel cancer cell lines; test: Cell growth analysis of NCI-60 panel cancer cell lines; assay type: cell-based, human; settings: FIG. 5C
[3] = test system: lung A549 xenografts; test: Subcutaneous xenografts of lung A549 cancer cell line in nude mice; assay type: in vivo
Description: (§3) For the therapeutic effects of the compounds, we examined the effects of CPD1 and CPD24 on various types of cancer xenografts in mice. […] NOD/SCID mice bearing intracranial brain xenografts of glioblastoma LN229 cell line were treated with CPD1.

[4] = log P; assay type: physicochemical
From the text: (§4) For example, without limitation, pharmaceutical compositions of this compound (CPD1) can comprise a molecular weight 348 g/mol and the log P value 3.7.

[5] = test system: colon cancer PDX (L1206F); test: Patient derived xenograft of colon cancer (L1206F); assay type: in vivo, mice
From the text: (§5) The left two graphs show data for compounds CPD1 and the middle two graphs show data for CPD24 treatment of colon cancer PDX (L1206F). […] The right two graphs show data for compound CPD1 and CPD24 treatment of lung cancer PDX (L1102F). […] The significance of **P<0.01, and ***P<0.001 was statistically analyzed.
as §3

[6] = test system: colon HCT116 xenografts; test: Subcutaneous xenografts of colon HCT116 cancer cell line in nude mice; assay type: in vivo
Description: as §3

[7] = test system: intracranial glioblastoma LN229 xenografts; test: Intracranial brain xenografts of glioblastoma LN229 in NOD/SCID mice, Kaplan Meier survival; assay type: in vivo; settings: intracranial LN229, log rank test
Description: as §3

[8] = test system: SUMO1; test: Ubiquitination of Flag-SUMO1 (immunoprecipitation, western blot) in co-transfected LN229 cells; assay type: cell-based, human; settings: LN229 cells co-transfected with Flag-SUMO1-GV and HA-UB-WT
From the text: as §2

[9] = test system: lung cancer PDX (L1102F); test: Patient derived xenograft of lung cancer (L1102F); assay type: in vivo, mice
From the text: as §5, §3

[10] = Tolerability across all xenograft mice; assay type: in vivo; settings: over the treatment period
Description: as §3

[11] = test system: LN229 cells; test: Cell viability assay, LN229 cells; assay type: cell-based, human; settings: Homo sapiens, LN-229, LN229 cells, read-out: Inhibition of Cancer Cell Growth (IC50)
Description: Each of the compounds was used to treat the cancer LN229 cells and examined first by western and dot blot assays for the degradation of SUMO1 protein and then by cell viability assay for the IC50 values of anticancer activity.
as §1

[12] = Pharmacokinetics, tissue distribution and toxicity in mice, intraperitoneal administration; assay type: in vivo
From the text: as §4

Chain of SUMO1 (Homo sapiens, UniProt P63165) (P63165 1-97 limits assumed): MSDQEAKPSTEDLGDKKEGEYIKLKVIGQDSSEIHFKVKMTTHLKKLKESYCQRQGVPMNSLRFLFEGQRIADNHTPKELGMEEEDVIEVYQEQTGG

## O=C(Nc1ccc(Cl)c([N+](=O)[O-])c1)Nc1nc2ccccc2s1 [Compound 1]
[1]; western and dot blotting
  conjugated, free form and total levels of SUMO1 protein: reduces the conjugated, free form and total levels of SUMO1 proteins
[1]; western blot, FIG. 2A
  selectivity of inhibition of conjugation (SUMO1, SUMO2/3, UB): selectively inhibiting the conjugation of SUMO1 but not SUMO2/3 or UB
[2]
  cell growth of NCI-60 panel cancer cell lines: significantly inhibits the cell growth of breast, colon, lung, kidney, ovarian, prostate, skin (melanocytic) and blood (leukemic) cancers
[3]
  xenograft progression: significantly suppressed xenograft progression
[4]
  logP: 3.7
[5]
  body weight of mice: had no effects on the body weight of mice
  tumor growth (tumor sizes): significantly inhibits the tumor growth of the colon cancer PDXs
[6]
  xenograft progression: significantly suppressed xenograft progression
[7]
  survival of xenograft mice: increases the survival of xenograft mice
[8]
  poly-ubiquitination of SUMO1 protein: results in the poly-ubiquitination of SUMO1 protein
[9]
  mouse body weight: no effects of the treatment on mouse body weight
[9]; CPD24 25 and 50 mg/kg, CPD1 100 mg/kg
  PDX growth: markedly inhibits the PDX growth
[10]
  tolerability, clinical signs: well tolerated over the treatment period with no clinical signs of lethargy, ataxia, paralysis, seizure or weight loss
[11]
  IC50: ≤ 5 µM
[12]; distribution in brain tumors
  blood brain barrier crossing: can cross the blood brain barrier
[12]; mice, intraperitoneal administration
  toxicity to normal tissues, side effects: no toxicity to normal tissues or side effects on mice
[12]; mouse cancer xenografts, intraperitoneal administration
  pharmacokinetics and tissue distribution: sufficient for degrading SUMO1 protein in mouse cancer xenografts
